According to article PMC12389646, “Design, Synthesis, and Bioactivity Assessment of Modified Vemurafenib Analog” (Pharmaceuticals, 2025):
pIC50: −log10 of the molar value.

Columns and labels:
[1] = test system: human melanoma A375 cells; assay: MTS cell viability assay, A375; type: cell-based; conditions: A-375, 24 h treatment, 0.01-10 μM tested
Method: (§1) The human cutaneous melanoma cancer cell line A375, obtained from the American Type Culture Collection (ATCC, Rockville, MD, USA) and human embryonic kidney HEK293T cell line, obtained from Rio de Janeiro Cell Bank (BCRJ, Rio de Janeiro, Brazil), were cultured in Dulbecco’s Modified Eagle’s Medium (DMEM, Sigma-Aldrich, St. Louis, MO, USA) supplemented with L-glutamine (2 mM), 10% fetal bovine serum (FBS), 50 IU/mL penicillin and 50 μg/mL streptomycin (Sigma-Aldrich, St. Louis, MO, USA). Cells were maintained at 37 °C in a humidified atmosphere containing 5% CO2. Low cell passages (between 5 and 20) were used in the present study.
(§2) Cell viability was measured using an MTS method based on the conversion of the tetrazolium salt MTS (3-(4,5-dimethylthiazol-2-yl)-5-(3-carboxymethoxyphenyl)-2-(4-sulfophenyl)-2H-tetrazolium, Sigma-Aldrich, St. Louis, MO, USA) to a purple formazan in the presence of phenazine methosulfate. The enzymes responsible are NADPH-dependent dehydrogenases, which are active in viable cells. Briefly, cells (5 × 10^4/well) were seeded in 96-well plates in medium with 10% FBS; after 24 h, the complete medium was replaced with fresh medium containing 1% FBS and incubated for 24 h. Fresh stock solutions were prepared on the day of the experiment, and the cells were treated with different concentrations of vemurafenib and analogs (0.01, 0.1, 0.5, 1, 5, and 10 μM). Effects were evaluated after 24 h. Untreated cells were incubated as controls. Following drug exposure, MTS was added, and the absorbance was measured at 570 nm using a microplate reader (CLARIOStar Plus, BMG LabTech, Ortenberg, Germany).
(§3) All the values of in vitro experiments are presented as the mean ± standard error of three independent experiments. Statistical analyses were performed via a one-way ANOVA with Dunnett’s post hoc test, and statistical significance was defined as * p < 0.05. IC50 values were calculated by non-linear regression analysis using an Inhibitor vs. normalized response model curve fit, as implemented. Statistical analyses were performed with GraphPad Prism 10.1.2 (GraphPad Software Inc., San Diego, CA, USA).

MMP-2 = assay: Gelatin zymography, MMP-2 in A375 conditioned media; type: cell-based, human; conditions: A375 cells, 1 μM and 5 μM, 24 h
Method: (§4) The potential effects of vemurafenib and its analogs on MMP-2 and MMP-9 activity in A375 cells were evaluated using gelatin zymography to detect gelatinolytic activity in conditioned media.
(§5) Gelatin zymography was carried out according to [30], using 7.5% SDS-polyacrylamide gels with 0.2% (w/v) gelatin. SDS-PAGE was run at 100 V at room temperature. Following electrophoresis, the gels were removed and placed in 2.5% (v/v) Triton X-100 to renature enzymes for 60 min. Then, gels were incubated in 50 mM Tris-HCl, 1 μM ZnCl2, 5 mM CaCl2, pH 7.5, overnight, to allow sufficient time for genatinolytic activity to occur. Following overnight incubation at 37 °C, gels were incubated in a staining solution (0.5% (v/v) Coomassie blue in a 40% methanol-10% acetic acid-water mixture) for 60 min. Following incubation, the staining solution, the gels were washed with the destaining solution (without coomassie blue) until the time to start to see the bands. Then imaged with a ChemiDoc^TM MP (BIO-RAD, Hercules, CA, USA) gel imaging system. Total protein and gelatinase activity were quantified using Image Lab™ Software 6.1 (BIO-RAD, Hercules, CA, USA).

[2] = test system: non-tumor HEK293T cell line; assay: MTS cell viability assay, HEK293T; type: cell-based, human; conditions: for pIC50: Homo sapiens, HEK-293T, 24 h treatment; for Selectivity Index: IC50 HEK293T divided by IC50 A375
Method: as §1, §2, §3

A375 cells = assay: TUNEL DNA fragmentation assay; type: cell-based, human; conditions: 5 μM, 24 h
Method: To detect DNA fragmentation in A375 cells, a modified apoptosis TUNEL method was used with the MEBSTAIN Apoptosis TUNEL Kit Direct (MBL International Corporation, Woburn, MA, USA) according to the manufacturer’s protocol. Briefly, cells were grown in 8-well culture slides (Corning, NY, USA) and incubated with the compounds (5 μM) for 24 h. Following treatments, the cells were washed with PBS and subsequently stained with TdT buffer, TdT solution, and Propidium Iodide, according to the manufacturer’s instructions. Experiments were conducted by fluorescent microscopy. The images were collected by an EVOS M5000 microscope (Thermo Fisher Scientific, Waltham, MA, USA).

MMP-9 = assay: Gelatin zymography, MMP-9 in A375 conditioned media; type: cell-based, human; conditions: A375 cells, 1 μM and 5 μM, 24 h
Method: as §4, §5

Compound | pIC50 [1] | MMP-2 expression and activity (MMP-2) | pIC50 ([2]; HEK293T cells, MTS) | Selectivity Index [2] | MMP-2 expression and activity (MMP-2; listed as RF-87A) | DNA fragmentation / TUNEL-positive apoptotic cells (A375 cells) | MMP-9 expression and activity (MMP-9) | cytotoxicity toward HEK293T cells ([2]; HEK293T cells, MTS)
O=C(N/N=C/c1c[nH]c2ncc(Br)cc12)c1ccc2c(c1)CCCC2 [RF-86A (2a), (E)-N-((5-Bromo-1H-pyrrolo[2,3-b]pyridin-3-yl)methylene)-5,6,7,8-tetrahydronaphthalene-2-carbohydrazide] | 5.16 | reduced | 3.94 | 16.37 |  |  |  | 
O=C(N/N=C/c1c[nH]c2ncc(Br)cc12)c1ccccn1 [RF-87A (2b), (E)-N-((5-Bromo-1H-pyrrolo[2,3-b]pyridin-3-yl)methylene)picolinohydrazide] | 4.33 | reduced | 3.85 | 3.01 | reduced MMP-2 activity only at the lower concentration (1 μM) |  |  | 
O=C(N/N=C/c1c[nH]c2ncc(Br)cc12)c1cnccn1 [RF-94A (2c), (E)-N-((5-Bromo-1H-pyrrolo[2,3-b]pyridin-3-yl)methylene)pyrazine-2-carbohydrazide] | 4.28 | reduced | 4.59 | 0.49 |  | higher number of apoptotic cells |  | 
O=C(N/N=C/c1c[nH]c2ncc(Br)cc12)c1cnc2ccccc2n1 [RF-94B (2d), (E)-N-((5-Bromo-1H-pyrrolo[2,3-b]pyridin-3-yl)methylene)quinoxaline-2-carbohydrazide] | 4.33 |  | 4.59 | 0.55 |  |  |  | 
CCCS(=O)(=O)Nc1ccc(F)c(C(=O)c2c[nH]c3ncc(-c4ccc(Cl)cc4)cc23)c1F [Vemurafenib] | 5.11 |  | < 3.00 | >1000 |  |  | upregulated | no cytotoxicity
